Here are results for 29 compounds from patent US8969356B2, “Compounds useful as inhibitors of ATR kinase” (Vertex Pharmaceuticals Incorporated, priority 2010, dated 2015).

Each structure is given as a SMILES string.

T1 sequence (Q13535 whole entry): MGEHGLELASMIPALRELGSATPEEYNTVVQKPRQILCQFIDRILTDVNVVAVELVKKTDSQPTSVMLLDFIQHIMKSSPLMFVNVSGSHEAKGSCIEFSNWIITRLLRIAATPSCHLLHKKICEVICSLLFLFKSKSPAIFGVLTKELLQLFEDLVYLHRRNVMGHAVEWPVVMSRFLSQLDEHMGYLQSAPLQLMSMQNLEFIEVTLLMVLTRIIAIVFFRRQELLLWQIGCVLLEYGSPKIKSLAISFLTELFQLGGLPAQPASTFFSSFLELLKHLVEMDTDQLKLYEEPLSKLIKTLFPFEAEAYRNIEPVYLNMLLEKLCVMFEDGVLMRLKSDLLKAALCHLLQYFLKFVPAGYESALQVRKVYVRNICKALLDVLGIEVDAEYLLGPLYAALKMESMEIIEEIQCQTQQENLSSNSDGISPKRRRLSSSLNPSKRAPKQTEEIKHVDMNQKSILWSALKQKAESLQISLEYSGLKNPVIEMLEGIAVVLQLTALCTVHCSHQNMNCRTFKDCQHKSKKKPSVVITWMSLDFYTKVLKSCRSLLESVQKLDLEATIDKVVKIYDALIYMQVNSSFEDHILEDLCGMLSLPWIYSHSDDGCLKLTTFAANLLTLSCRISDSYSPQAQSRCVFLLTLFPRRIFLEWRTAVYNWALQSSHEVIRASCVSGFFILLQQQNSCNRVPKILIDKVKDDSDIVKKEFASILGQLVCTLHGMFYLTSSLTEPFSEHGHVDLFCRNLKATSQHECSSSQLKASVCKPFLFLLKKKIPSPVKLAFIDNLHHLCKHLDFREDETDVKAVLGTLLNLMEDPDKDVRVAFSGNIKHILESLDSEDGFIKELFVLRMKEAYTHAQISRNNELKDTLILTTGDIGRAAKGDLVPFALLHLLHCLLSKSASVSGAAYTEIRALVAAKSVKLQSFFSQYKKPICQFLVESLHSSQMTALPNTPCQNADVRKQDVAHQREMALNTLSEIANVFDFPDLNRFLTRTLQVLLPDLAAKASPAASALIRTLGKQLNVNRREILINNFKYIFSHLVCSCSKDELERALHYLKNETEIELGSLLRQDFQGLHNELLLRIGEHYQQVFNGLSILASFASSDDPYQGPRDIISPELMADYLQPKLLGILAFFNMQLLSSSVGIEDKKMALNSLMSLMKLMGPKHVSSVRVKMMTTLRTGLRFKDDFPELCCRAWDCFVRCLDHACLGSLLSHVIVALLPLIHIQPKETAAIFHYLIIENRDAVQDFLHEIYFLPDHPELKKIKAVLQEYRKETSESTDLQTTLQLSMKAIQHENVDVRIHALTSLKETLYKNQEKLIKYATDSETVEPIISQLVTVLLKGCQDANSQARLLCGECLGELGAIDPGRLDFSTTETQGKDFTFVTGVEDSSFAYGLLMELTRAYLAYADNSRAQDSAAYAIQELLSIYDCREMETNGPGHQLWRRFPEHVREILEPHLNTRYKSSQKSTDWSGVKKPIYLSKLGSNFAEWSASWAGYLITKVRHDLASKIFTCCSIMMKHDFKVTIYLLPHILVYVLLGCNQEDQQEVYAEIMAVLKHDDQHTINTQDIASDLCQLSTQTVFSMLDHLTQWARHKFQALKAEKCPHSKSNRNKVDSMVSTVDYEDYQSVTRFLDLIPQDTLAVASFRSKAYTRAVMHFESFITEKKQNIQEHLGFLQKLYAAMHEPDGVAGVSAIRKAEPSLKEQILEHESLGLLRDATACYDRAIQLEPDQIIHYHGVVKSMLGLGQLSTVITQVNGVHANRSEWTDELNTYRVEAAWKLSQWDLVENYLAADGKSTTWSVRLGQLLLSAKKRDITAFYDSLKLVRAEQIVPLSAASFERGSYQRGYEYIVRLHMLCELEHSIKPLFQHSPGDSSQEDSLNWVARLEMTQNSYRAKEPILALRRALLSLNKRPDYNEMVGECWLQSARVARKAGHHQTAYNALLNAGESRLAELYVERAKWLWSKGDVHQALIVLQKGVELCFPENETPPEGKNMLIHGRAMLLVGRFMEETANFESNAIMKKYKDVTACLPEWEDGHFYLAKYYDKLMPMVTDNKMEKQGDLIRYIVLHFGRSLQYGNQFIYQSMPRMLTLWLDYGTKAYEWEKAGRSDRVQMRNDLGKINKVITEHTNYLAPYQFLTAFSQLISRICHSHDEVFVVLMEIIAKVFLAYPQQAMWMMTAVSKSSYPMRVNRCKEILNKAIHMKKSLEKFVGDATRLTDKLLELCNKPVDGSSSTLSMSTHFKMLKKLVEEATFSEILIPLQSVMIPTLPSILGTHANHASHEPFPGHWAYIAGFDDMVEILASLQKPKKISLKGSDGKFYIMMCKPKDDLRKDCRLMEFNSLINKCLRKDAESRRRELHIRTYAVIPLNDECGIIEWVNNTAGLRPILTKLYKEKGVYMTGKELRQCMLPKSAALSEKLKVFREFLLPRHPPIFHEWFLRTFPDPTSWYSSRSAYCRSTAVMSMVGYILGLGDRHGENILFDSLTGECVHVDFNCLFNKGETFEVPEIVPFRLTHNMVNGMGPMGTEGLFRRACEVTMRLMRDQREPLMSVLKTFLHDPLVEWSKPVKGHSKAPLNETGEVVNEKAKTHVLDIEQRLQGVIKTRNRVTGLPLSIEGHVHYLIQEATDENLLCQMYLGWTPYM

The first experiment concerns the target T1, ATR kinase (Homo sapiens, UniProt Q13535).
T1 construct: Assays were carried out at 25° C. in the presence of 5 nM full-length ATR
Kind of experiment: ATR Inhibition Assay (radioactive-phosphate incorporation). It is filed as biochemical.
Conditions: not given
As for the experimental part:
Compounds were screened for their ability to inhibit ATR kinase using a radioactive-phosphate incorporation assay. Assays were carried out in a mixture of 50 mM Tris/HCl (pH 7.5), 10 mM MgCl2 and 1 mM DTT. Final substrate concentrations were 10 μM [γ-33P]ATP (3mCi 33P ATP/mmol ATP, Perkin Elmer) and 800 μM target peptide ([…] (SEQ. ID NO: 1)).
Assays were carried out at 25° C. in the presence of 5 nM full-length ATR. An assay stock buffer solution was prepared containing all of the reagents listed above, with the exception of ATP and the test compound of interest. 13.5 μL of the stock solution was placed in a 96 well plate followed by addition of 2 μL of DMSO stock containing serial dilutions of the test compound (typically starting from a final concentration of 15 μM with 3-fold serial dilutions) in duplicate (final DMSO concentration 7%). The plate was pre-incubated for 10 minutes at 25° C. and the reaction initiated by addition of 15 μL [γ-33P]ATP (final concentration 10 μM).
The reaction was stopped after […] by the addition of 30 μL 0.1M phosphoric acid containing 2 mM ATP. A multiscreen phosphocellulose filter 96-well plate (Millipore, Cat no. MAPHN0B50) was pretreated with 100 μL 0.2M phosphoric acid prior to the addition of 45 μL of the stopped assay mixture. The plate was washed with 5×200 μL 0.2M phosphoric acid. After drying, 100 μL Optiphase ‘SuperMix’ liquid scintillation cocktail (Perkin Elmer) was added to the well prior to scintillation counting (1450 Microbeta Liquid Scintillation Counter, Wallac).
After removing mean background values for all of the data points, Ki(app) data were calculated from non-linear regression analysis of the initial rate data using the Prism software package (GraphPad Prism version 3.0cx for Macintosh, GraphPad Software, San Diego Calif., USA).
As for `CC(C)S(=O)(=O)c1ccc(-c2cnc(N)c(C#Cc3cncn3C)n2)cc1` [Compound I-39], the Ki was not above 100 nM.

For `CC(=O)Nc1cccc(C#Cc2nc(-c3ccc(S(=O)(=O)C(C)C)cc3)cnc2N)c1` [Compound I-6, N-[3-[2-[3-Amino-6-(4-isopropylsulfonylphenyl)pyrazin-2-yl]ethynyl]phenyl]acetamide], the Ki was not above 100 nM.

Regarding `COc1ccccc1C#Cc1nc(-c2ccc(S(=O)(=O)C(C)C)cc2)cnc1N` [Compound I-19, 5-(4-Isopropylsulfonylphenyl)-3-[2-(2-methoxyphenyl)ethynyl]pyrazin-2-amine], the Ki was 100 to 1000 nM.

For `CC(C)S(=O)(=O)c1ccc(-c2cnc(N)c(C#Cc3ccccc3N)n2)cc1` [Compound I-38, 3-((2-aminophenyl)ethynyl)-5-(4-(isopropylsulfonyl)phenyl)pyrazin-2-amine], the Ki was 100 to 1000 nM.

Take `CNCc1cccc(C#Cc2nc(-c3ccc(S(=O)(=O)C(C)C)cc3)cnc2N)c1` [Compound I-28, 5-(4-Isopropylsulfonylphenyl)-3-[2-[3-(methylaminomethyl)phenyl]ethynyl]pyrazin-2-amine]: the inhibition constant (Ki) was not above 100 nM.

As for `CC(C)S(=O)(=O)c1ccc(-c2cnc(N)c(C#C[C@@H](C)O)n2)cc1` [Compound I-4, (2R)-4-[3-Amino-6-(4-isopropylsulfonylphenyl)pyrazin-2-yl]but-3-yn-2-ol], the Ki was in the range of 100 to 1000 nM.

Regarding `CC(C)S(=O)(=O)c1ccc(-c2cnc(N)c(C#Cc3cccc(OCCN4CCOCC4)c3)n2)cc1` [Compound I-36, 5-(4-Isopropylsulfonylphenyl)-3-[2-[3-(2-morpholinoethoxy)phenyl]ethynyl]pyrazin-2-amine], the Ki is 100 to 1000 nM.

`CC(C)S(=O)(=O)c1ccc(-c2cnc(N)c(C#Cc3ccc(C(O)CN)cc3)n2)cc1` (centres unmarked) [Compound I-42, 2-amino-1-(4-((3-amino-6-(4-(isopropylsulfonyl)phenyl)pyrazin-2-yl)ethynyl)phenyl)ethanol]: the Ki was not above 100 nM.

For the compound `COc1cccc(C#Cc2nc(-c3ccc(S(=O)(=O)C(C)C)cc3)cnc2N)c1` [Compound I-3, 5-(4-Isopropylsulfonylphenyl)-3-[2-(3-methoxyphenyl)ethynyl]pyrazin-2-amine], the Ki is not above 100 nM.

On to `CC(C)S(=O)(=O)c1ccc(-c2cnc(N)c(C#Cc3cccc(OCCN)c3)n2)cc1` [Compound I-25, 3-[2-[3-(2-Aminoethoxy)phenyl]ethynyl]-5-(4-isopropylsulfonylphenyl)pyrazin-2-amine], for which the Ki is not above 100 nM.

Consider `CC(C)S(=O)(=O)c1ccc(-c2cnc(N)c(C#Cc3cccc(OCCN(C)C)c3)n2)cc1` [Compound I-26, 3-[2-[3-(2-Dimethylaminoethyloxy)phenyl]ethynyl]-5-(4-isopropylsulfonylphenyl)pyrazin-2-amine], for which the inhibitory constant (Ki) lay in the range of 100 to 1000 nM.

Turning to `CC(C)S(=O)(=O)c1ccc(-c2cnc(N)c(C#Cc3ccc(F)cc3)n2)cc1` [Compound I-14, 3-[2-(4-Fluorophenyl)ethynyl]-5-(4-isopropylsulfonylphenyl)pyrazin-2-amine], the Ki was not above 100 nM.

As for `CC(C)S(=O)(=O)c1ccc(-c2cnc(N)c(C#Cc3cccc4[nH]ncc34)n2)cc1` [Compound I-44, 3-((1H-indazol-4-yl)ethynyl)-5-(4-(isopropylsulfonyl)phenyl)pyrazin-2-amine], the Ki is not above 100 nM.

In the case of `CC(C)S(=O)(=O)c1ccc(-c2cnc(N)c(C#CCc3ccccc3)n2)cc1` [Compound I-10, 5-(4-isopropylsulfonylphenyl)-3-(3-phenylprop-1-ynyl)pyrazin-2-amine], the Ki was in the range of 1000 to 13000 nM.

For the compound `CC(C)S(=O)(=O)c1ccc(-c2cnc(N)c(C#Cc3cccc(N)n3)n2)cc1` [Compound I-41, 3-((6-aminopyridin-2-yl)ethynyl)-5-(4-(isopropylsulfonyl)phenyl)pyrazin-2-amine], the Ki was not above 100 nM.

For `CC(C)S(=O)(=O)c1ccc(-c2cnc(N)c(C#Cc3cccnc3)n2)cc1` [Compound I-13, 5-(4-Isopropylsulfonylphenyl)-3-[2-(3-pyridyl)ethynyl]pyrazin-2-amine], the Ki was not above 100 nM.

Turning to `CC(C)S(=O)(=O)c1ccc(-c2cnc(N)c(C#Cc3ccccc3N3CCNCC3)n2)cc1` [Compound I-43, 5-(4-(isopropylsulfonyl)phenyl)-3-((2-(piperazin-1-yl)phenyl)ethynyl)pyrazin-2-amine], the inhibition constant Ki was not above 100 nM.

As to `CC(C)S(=O)(=O)c1ccc(-c2cnc(N)c(C#Cc3cc(Cl)cc(CO)c3)n2)cc1` [Compound I-48, (3-((3-amino-6-(4-(isopropylsulfonyl)phenyl)pyrazin-2-yl)ethynyl)-5-chlorophenyl)methanol], the Ki is not above 100 nM.

As for `CC(C)S(=O)(=O)c1ccc(-c2cnc(N)c(C#Cc3cccc(NC(=O)CN)c3)n2)cc1` [Compound I-49, 2-amino-N-(3-((3-amino-6-(4-(isopropylsulfonyl)phenyl)pyrazin-2-yl)ethynyl)phenyl)acetamide], the Ki is not above 100 nM.

Turning to `CC(C)S(=O)(=O)c1ccc(-c2cnc(N)c(C#C[C@H](C)O)n2)cc1` [Compound I-29, (2S)-4-[3-Amino-6-(4-isopropylsulfonylphenyl)pyrazin-2-yl]but-3-yn-2-ol], the Ki fell in the range of 1000 to 13000 nM.

With `CC(C)S(=O)(=O)c1ccc(-c2cnc(N)c(C#Cc3cccc(Cl)c3)n2)cc1` [Compound I-9, 3-[2-(3-Chlorophenyl)ethynyl]-5-(4-isopropylsulfonylphenyl)pyrazin-2-amine], the Ki was not above 100 nM.

On to `CC(C)S(=O)(=O)c1ccc(-c2cnc(N)c(C#Cc3cccc4ccccc34)n2)cc1` [Compound I-2, 5-(4-Isopropylsulfonylphenyl)-3-[2-(1-naphthyl)ethynyl]pyrazin-2-amine], for which the Ki was not above 100 nM.

On to `N#Cc1ccccc1-c1cnc(N)c(C#Cc2cccc(O)c2)n1` [Compound I-18, 2-[5-Amino-6-[2-(3-hydroxyphenyl)ethynyl]pyrazin-2-yl]benzonitrile], for which the Ki is not above 100 nM.

As to `Cc1ccc(O)cc1C#Cc1nc(-c2ccc(S(=O)(=O)C(C)C)cc2)cnc1N` [Compound I-47, 3-((3-amino-6-(4-(isopropylsulfonyl)phenyl)pyrazin-2-yl)ethynyl)-4-methylphenol], the Ki was not above 100 nM.

Take `CC(C)S(=O)(=O)c1ccc(-c2cnc(N)c(C#CC3CCCCC3)n2)cc1` [Compound I-8, 3-(2-Cyclohexylethynyl)-5-(4-isopropylsulfonylphenyl)pyrazin-2-amine]: the Ki is 100 to 1000 nM.

With `CC(C)S(=O)(=O)c1ccc(-c2cnc(N)c(C#Cc3cccc(OCCCN)c3)n2)cc1` [Compound I-24, 3-[2-[3-(3-Aminopropoxy)phenyl]ethynyl]-5-(4-isopropylsulfonylphenyl)pyrazin-2-amine], the Ki was not above 100 nM.

For `Nc1ncc(-c2ccc(S(=O)(=O)C3CCNCC3)cc2)nc1C#Cc1cccc(O)c1` [Compound I-17, 3-[2-[3-Amino-6-[4-(4-piperidylsulfonyl)phenyl]pyrazin-2-yl]ethynyl]phenol], the Ki is not above 100 nM.

As to `CC(C)S(=O)(=O)c1ccc(-c2cnc(N)c(C#Cc3ccncc3)n2)cc1` [Compound I-32, 5-(4-Isopropylsulfonylphenyl)-3-[2-(4-pyridyl)ethynyl]pyrazin-2-amine], the Ki was not above 100 nM.

The experiment is the same for the next values; noted with them: at 15 uM.
As for `CC(C)S(=O)(=O)c1ccc(-c2cnc(N)c(C#Cc3ccccc3CO)n2)cc1` [Compound I-46, (2-((3-amino-6-(4-(isopropylsulfonyl)phenyl)pyrazin-2-yl)ethynyl)phenyl)methanol], the inhibition at 15 µM amounted to 30%.

In general, Ki refers to the dissociation constant of the complex between target and ligand, obtained from inhibition or displacement. By inhibition is commonly meant how much of the control response was suppressed.
